# Data taken from ChEMBL document CHEMBL1150211, “Structure of Irniine, a Pyrrolidine Alkaloid from Arisarum vulgare” (J Nat Prod, 1992).
# Assay: Toxicity in brine shrimp
# Assay type: organism-based
# Settings: artemia, in vivo
compound,measurement,value
CN1CCC[C@H]1CCCCCCCCCc1ccccc1,LC50,1 µg/mL
